Key:
[1] = Photochromic properties of photochromic laminate (plastic lens) made by coating method; type: physicochemical; conditions: for Color developing density at 23°C: absorbance difference after 240 seconds irradiation at 23°C; for Color developing density at 35°C: absorbance difference after 240 seconds irradiation at 35°C; for Maximum absorption wavelength: after color development, second absorption wavelength (lower line of pair)
From the text: First, the photochromic compound obtained in Example 1 above, a photoinitiator, and polymerizable compounds were mixed to obtain a curable composition.
As the polymerizable compounds, a blend of the following radically-polymerizable monomers in combination was used.
• Polyethylene glycol dimethacrylate (average molecular weight: 736): 42 parts by mass • Polyethylene glycol dimethacrylate (average molecular weight: 536): 12 parts by mass • Trimethylolpropane trimethacrylate: 38 parts by mass • γ-Methacryloyloxypropyltrimethoxysilane: 2 parts by mass • Glycidyl methacrylate: 1 part by mass.
Note that in the curable composition, the photochromic compound obtained in Example 1 above was added to be 0.25 mmol taking the total amount of the radically-polymerizable monomers as 100 g. The following were used as additives.
(stabilizer, Irganox 245): 1 part by mass Bis(1,2,2,6,6-pentamethyl-4-piperidyl) sebacate: 3 parts by mass Leveling agent from DuPont Toray Specialty Materials K.K. (L7001): 0.1 parts by mass.
Note that the above-mentioned additives are described with blending ratios taking a total of the radically-polymerizable monomers as 100 parts by mass.
Using this curable composition, a photochromic laminate was obtained by a lamination process described below with the polymerization described below being carried out.
First, a thiourethane plastic lens with a center thickness of 2 mm and a refractive index of 1.60 was prepared as an optical substrate. Note that the thiourethane plastic lens had been alkaline-etched beforehand in a 10% aqueous sodium hydroxide solution at 50°C for 5 minutes, and then thoroughly washed with distilled water.
A spin coater (1H-DX2, manufactured by MIKASA CO., LTD) was used to coat a surface of the above-mentioned plastic lens with a moisture-curable primer (product name: TR-SC-P, manufactured by Tokuyama Corporation) at a rotation speed of 70 rpm for 15 seconds, followed by at 1000 rpm for 10 seconds. Then, about 2 g of the photochromic curable composition obtained as above was spin-coated at a rotation speed of 60 rpm for 40 seconds, followed by at 600 rpm for 10 to 20 seconds so as to achieve a photochromic coating layer with a film thickness of 40 µm.
The lens having the surface coated with the photochromic curable composition (photochromic coating layer) was irradiated with light for 90 seconds in a nitrogen gas atmosphere using a metal halide lamp with an output of 200 mW/cm^2 to cure the coating film. The coating was then further heated at 110°C for 1 hour to produce a photochromic laminate with a photochromic layer.
Photochromic laminates were produced using the photochromic compounds obtained in Examples 2 to 19 in the same manner as in Example 20.
Photochromic laminates were obtained in the same manner as in Example 20 using photochromic compounds represented by the following formulas (A) to (F). [drawing 143] [drawing 144] [drawing 145] [drawing 146] [drawing 147] [drawing 148] [drawing 149] [drawing 150]
The resulting photochromic laminates were evaluated by the methods described below.
Table 3 summarizes the results of Examples 20, 32, and 34, and Comparative Examples 1 to 6, and Table 4 summarizes the results of Examples 21 to 31, 33, and 35 to 38. The relationship between the fading half-life at 23°C and the color development ratio at the higher temperature of the photochromic laminates according to Examples and Comparative Examples are shown in a graph in FIG. 1.
Photochromic laminates were formed using the photochromic compound obtained in Examples 61 to 71 in the same manner as in Example 20.

[2] = Photochromic properties of photochromic cured product made by kneading method; type: physicochemical; conditions: for Maximum absorption wavelength: 1 mm, after color development, second absorption wavelength (lower line of pair); for Color developing density at 23°C: absorbance difference after 240 seconds irradiation at 23°C; for Color developing density at 35°C: absorbance difference after 240 seconds irradiation at 35°C
From the text: First, the photochromic compound obtained in Example 1, additives, and polymerizable compounds were mixed to obtain a curable composition. As the polymerizable compounds, a blend of the following polymerizable monomers in combination was used. • 1,3-Bis(isocyanatomethyl)cyclohexane: 36.7 parts by mass Pentaerythritol tetrakis(3-mercaptopropionate): 39.4 parts by mass • Polyoxyethylene polyoxypropylene lauryl ether (WONDERSURF 140 from Aoki Oil Industrial Co., Ltd.): 17.4 parts by mass 1-Decanethiol: 2.8 parts by mass • RX-1 prepared according to the method described in Patent Document 12: 3.8 parts by mass Note that in the curable composition, the photochromic compound was added to be 0.106 mmol taking the total amount of the polymerizable monomers as 100 g.
The following additives were used. Dimethyltin dichloride: 0.05 parts by mass • Irganox 245 from BASF Japan Ltd.: 0.1 parts by mass • 2-Ethylhexyl 4-methoxycinnamate: 0.6 parts by mass
The prepared curable composition was sufficiently degassed, and then injected into a glass mold provided with a gap of 1 mm, and the curable composition was polymerized via casting polymerization. […] After the polymerization, the cured product was removed from the glass mold, to obtain photochromic cured product having a thickness of 1 mm. The resulting photochromic cured product was evaluated in the same manner as in Example 23.
(Examples 51 to 60, and Comparative Examples 11 to 14) Photochromic cured products were formed using the photochromic compound shown in Table 6 in the same manner as in Example 50.

[3] = Photochromic properties of photochromic layer (binder sheet) made by binder method; conditions: for Color developing density at 23°C: absorbance difference after 240 seconds irradiation at 23°C; for Color developing density at 35°C: absorbance difference after 240 seconds irradiation at 35°C; for Maximum absorption wavelength: after color development, second absorption wavelength (lower line of pair)
Experimental: This is the maximum absorption wavelength after color development determined by a spectrophotometer manufactured by Otsuka Electronics Co., Ltd. (instantaneous multichannel photo detector MCPD3000) and was used as an index of a color tone upon color development.
This is a difference between an absorbance {ε(240)} after irradiation with light at the above-mentioned maximum absorption wavelength at 23°C for 240 seconds and an absorbance ε(0) when not irradiated with light, and was used as an index of a color developing density. The higher this value is, the better photochromic property is.
This is a difference between an absorbance {ε(240)} after irradiation with light at first and second absorption wavelengths at 35°C for 240 seconds and an absorbance ε(0) when not irradiated with light, and was used as an index of a color developing density. The higher this value is, the better photochromic property is.
Color developing density at 35°C (A35) /color developing density at 23°C (A23) × 100(%). The higher this value is, the smaller the difference in color developing density between the higher temperature and the lower temperature is, and the smaller the temperature dependence is.
This is the period of time required for the absorbance at a maximum absorption wavelength of a sample to decrease to 1/2 of {ε(240)-ε(0)}, when light irradiation is stopped after the sample had been irradiated with light at 23°C for 240 seconds, and was used as an index of a color fading rate. The shorter this period of time is, the higher the color fading rate is.
A binder sheet was made according to the following method. […] As the first and second optical sheets, polycarbonate sheets with a thickness of 400 µm were used.
Note that the photochromic compound was added to be 0.25 mmol relative to 100 parts by mass of the terminally non-reactive urethaneurea resin.

| SMILES | Color developing density at 23°C ([1]; first absorption wavelength) | Color developing density at 23°C ([1]; second absorption wavelength) | Color developing density at 35°C ([1]; first absorption wavelength) | Color developing density at 35°C ([1]; second absorption wavelength) | Maximum absorption wavelength [1] | Maximum absorption wavelength [2] | Color developing density at 23°C ([2]; first absorption wavelength) | Color developing density at 23°C ([2]; second absorption wavelength) | Color developing density at 35°C ([2]; first absorption wavelength) | Color developing density at 35°C ([2]; second absorption wavelength) | Color developing density at 23°C ([3]; first absorption wavelength) | Color developing density at 23°C ([3]; second absorption wavelength) | Color developing density at 35°C ([3]; first absorption wavelength) | Color developing density at 35°C ([3]; second absorption wavelength) | Maximum absorption wavelength [3] |
| --- | --- | --- | --- | --- | --- | --- | --- | --- | --- | --- | --- | --- | --- | --- | --- |
| COc1ccc(C2(c3ccc(OC)cc3)C=Cc3c4c(c5ccc(OC)cc5c3O2)-c2ccccc2C4(C)C)cc1 [Formula (A), reference compound] | 0.69 - | 0.87 - | 0.44 - | 0.55 - | 569 nm | 578 nm | 0.72 - | 0.91 - | 0.48 - | 0.61 - | 0.71 - | 0.90 - | 0.46 - | 0.58 - | 569 nm |
| CCCOc1ccc(C2(c3ccc(OC)cc3)C=Cc3c4c(c5cc(C)c(OC)cc5c3O2)-c2ccc(N3CCSc5ccccc53)cc2C4(CCC)CCC)cc1 (stereo not drawn) [Formula (9-2)] | 1.01 - | 0.90 - | 0.74 - | 0.66 - | 609 nm | 614 nm | 1.05 - | 0.92 - | 0.78 - | 0.69 - | 1.04 - | 0.91 - | 0.73 - | 0.64 - | 607 nm |
| COc1ccc(C2(c3ccc(OC)cc3)C=Cc3c4c(c5ccc(OC)cc5c3O2)-c2ccc(N(c3ccccc3)c3ccccc3)cc2C4(C)C)cc1 [Formula (15-2)] | 0.92 - | 1.07 - | 0.67 - | 0.79 - | 619 nm | 622 nm | 0.95 - | 1.10 - | 0.70 - | 0.83 - | 0.93 - | 1.08 - | 0.67 - | 078 - | 616 nm |
| COc1ccc(C2(c3ccc(OC)cc3)C=Cc3c4c(c5ccc(Oc6ccccc6)cc5c3O2)-c2ccc(N(c3ccccc3)c3ccccc3)cc2C4(CCCCF)CCCCF)cc1 [Formula (8-2)] | 0.75 - | 0.99 - | 0.52 - | 0.69 - | 610 nm | 618 nm | 0.78 - | 1.02 - | 0.55 - | 0.70 - | 0.77 - | 1.01 - | 0.51 - | 0.69 - | 609 nm |
| COc1ccc(C2(c3ccc(N4CCOCC4)cc3)C=Cc3c4c(c5ccc(OC)cc5c3O2)-c2ccc(N(C)c3ccccc3)cc2C42CCCCCCC2)cc1 (stereo not drawn) [Formula (4-3)] | 0.68 - | 1.14 - | 0.48 - | 0.81 - | 626 nm | 631 nm | 0.69 - | 1.17 - | 0.49 - | 0.84 - | 0.68 - | 1.16 - | 0.47 - | 0.80 - | 627 nm |
| CCCCC1(CCCC)c2cc(N(CC)c3ccccc3)ccc2-c2c1c1c(c3cc(C)c(-c4ccc(OC)cc4)cc23)OC(c2ccc(C)cc2)(c2ccc(N(C)c3ccccc3)cc2)C=C1 (stereo not drawn) [Formula (12-5)] | 0.86 - | 1.49 - | 0.64 - | 1.11 - | 624 nm | 632 nm | 0.88 - | 1.52 - | 0.67 - | 1.15 - | 0.87 - | 1.51 - | 0.61 - | 1.08 - | 625 nm |
| COCCCCC1(CCCCOC)c2cc(N(C)c3ccccc3)ccc2-c2c1c1c(c3cc(OC)c(OC)cc23)OC(c2ccc(OC)cc2)(c2ccc(OC)cc2)C=C1 [Formula (2-7)] | 1.43 - | 0.83 - | 1.06 - | 0.62 - | 608 nm | 615 nm | 1.50 - | 0.86 - | 1.12 - | 0.66 - | 1.47 - | 0.85 - | 1.06 - | 0.61 - | 609 nm |
| COc1ccc(C2(c3ccc(OC)cc3)C=Cc3c4c(c5ccc(OC)cc5c3O2)-c2ccc(OC)cc2C4(C)C)cc1 [Formula (C), reference compound] | 0.71 - | 1.04 - | 0.48 - | 0.74 - | 593 nm | 600 nm | 0.74 - | 1.07 - | 0.54 - | 0.81 - | 0.73 - | 1.06 - | 0.51 - | 0.75 - | 594 nm |
